Source: patent US20020128301A1, “Non-nucleoside reverse transcriptase inhibitors” (priority 1998, published 2002)

Assay: Bioavailability: release of the mother compound of Formula P-2 from orally administered prodrugs in rats, plasma assayed by HPLC
Settings: oral, propylene glycol vehicle, fasted male Sprague Dawley rats, dose corresponding to […]; released drug (1S,2S)-N-[cis-2-(6-fluoro-2-hydroxy-3-propionylphenyl)cyclopropyl]-N'-[2-(5-cyanopyridyl)]urea measured in plasma
Procedure: At 30, 60, 120, 240 & 360 minutes, 0.2 ml blood were collected, centrifuged and frozen for later analysis. […] Aliquots comprising 40-100 μl of each plasma sample are mixed with an equal volume of acetonitrile (10 seconds, Vibrofex). The sample is centrifuged (2 min, 14000 RPM) and 30 μl the supernatant is injected into an HPLC system, as follows.

Bioavailability 0-6 hours [%] | SMILES
50 | CCC(=O)c1ccc(F)c([C@@H]2C[C@@H]2NC(=O)Nc2ccc(C#N)cn2)c1OCOC(=O)OC(COC(=O)[C@@H](N)C(C)C)COC(=O)[C@@H](N)C(C)C (relative stereo) [Example 6]
70 | CCC(=O)c1ccc(F)c([C@@H]2C[C@@H]2NC(=O)Nc2ccc(C#N)cn2)c1OC(=O)OCOC(=O)[C@@H](N)C(C)C (relative stereo) [Example 7, (1S,2S)-N-[cis-2-(6-fluoro-2-(L-valyloxy)methoxycarbonyloxy-3-propionylphenyl)cyclopropyl]-N′-[2-(5-cyanopyridyl)]urea]

SMILES | Bioavailability 0-6 hours [%]
CCC(=O)c1ccc(F)c([C@@H]2C[C@@H]2NC(=O)Nc2ccc(C#N)cn2)c1OCOC(=O)[C@@H](N)[C@@H](C)CC (relative stereo) [Example 1, (1S, 2S)-N-{cis-2-[6-fluoro-2-(L-isoleucyloxymethyloxy)-3-propionylphenyl]cyclopropyl}-N′-[2-(5-cyanopyridyl)]urea] | 34
